We go through 16 compounds from ChEMBL document CHEMBL3734743, “Potent complement C3a receptor agonists derived from oxazole amino acids: Structure-activity relationships” (Bioorg Med Chem Lett, 2015).

Molecules are shown by their SMILES. Active and inactive are the calls of the source. The rule behind the calls is not given here.

The target of assay [1] is T1, C3a anaphylatoxin chemotactic receptor (Homo sapiens) (UniProt Q16581).
T1 sequence (whole entry): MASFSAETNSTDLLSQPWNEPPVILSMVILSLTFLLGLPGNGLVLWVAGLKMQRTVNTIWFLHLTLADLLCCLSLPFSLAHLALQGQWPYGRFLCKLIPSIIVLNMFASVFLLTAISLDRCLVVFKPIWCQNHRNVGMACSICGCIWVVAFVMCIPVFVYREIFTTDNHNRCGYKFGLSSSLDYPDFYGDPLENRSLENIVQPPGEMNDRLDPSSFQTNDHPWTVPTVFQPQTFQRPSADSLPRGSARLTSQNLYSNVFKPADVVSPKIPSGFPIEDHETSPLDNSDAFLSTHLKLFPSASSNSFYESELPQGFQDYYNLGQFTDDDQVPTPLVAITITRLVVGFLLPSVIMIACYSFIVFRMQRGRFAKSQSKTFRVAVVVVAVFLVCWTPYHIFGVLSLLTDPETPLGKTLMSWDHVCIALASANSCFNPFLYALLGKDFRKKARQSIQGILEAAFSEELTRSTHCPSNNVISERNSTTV
In words: Agonist activity at C3aR in human MDM cells assessed as intracellular calcium efflux at 1 uM measured for 60 secs by fluorescence based receptor desensitization assay. The format is functional, cell-based. (Calcium flux is commonly read through the fluorescence of an indicator in the cells.)

The target of assay [2] is T2, C3a anaphylatoxin chemotactic receptor (Homo sapiens, UniProt Q16581).
T2 sequence (Q16581 whole entry): T1 sequence (whole entry)
As to the kind of experiment: Displacement of [125I]-C3a from C3aR in human MDM cells after 60 mins by microbeta scintillation counting analysis. The format is cell-based. (In general: Displacement assays read how much labelled ligand stays bound in the presence of the test substance.)

The target of assay [3] is T3, C5a anaphylatoxin chemotactic receptor 1 (Homo sapiens) (UniProt P21730).
T3 sequence (whole entry): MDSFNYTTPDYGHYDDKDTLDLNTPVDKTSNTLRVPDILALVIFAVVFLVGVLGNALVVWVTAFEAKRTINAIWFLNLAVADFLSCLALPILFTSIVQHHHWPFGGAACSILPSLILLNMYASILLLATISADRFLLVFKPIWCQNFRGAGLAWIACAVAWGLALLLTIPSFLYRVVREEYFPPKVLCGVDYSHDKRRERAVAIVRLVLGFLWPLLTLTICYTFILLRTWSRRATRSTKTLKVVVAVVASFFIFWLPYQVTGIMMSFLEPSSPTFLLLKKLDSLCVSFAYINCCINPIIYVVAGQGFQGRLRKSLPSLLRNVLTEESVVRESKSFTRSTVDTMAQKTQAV
In words: Displacement of [125I]-C5a from C5aR in human MDM cells at 20 uM after 60 mins by microbeta scintillation counting analysis. The format is cell-based.

Assay [4] concerns the target T2, C3a anaphylatoxin chemotactic receptor. In words: Agonist activity at C3aR in human MDM cells assessed as inhibition of C3a-induced Ca2+ response measured for 60 secs by fluorescence assay. Format: functional, cell-based.
Assay [5] addresses T1, C3a anaphylatoxin chemotactic receptor (Homo sapiens). In words: Agonist activity at C3aR in human MDM cells assessed as induction of intracellular Ca2+ release measured for 60 secs in presence of C3a antagonist SB290157 by fluorescence assay. Format: functional, cell-based.
Assay [6] has the same target. As to the kind of experiment: Displacement of [125I]-C3a from C3aR in human MDM cells at 10 uM after 60 mins by microbeta scintillation counting analysis. Format: cell-based.

The term IC50 denotes the concentration at which inhibition is half-maximal. Higher therefore signals weaker potency. In the case of `CC[C@H](C)[C@H](NC(=O)c1ccccc1Oc1ccccc1)c1nc(C(=O)N[C@@H](CCCNC(=N)N)C(=O)O)co1`, in assay [1], the outcome was Active. Besides, the IC50 in assay [2] stood at 55 nM. Besides, the inhibition result in assay [3] was “inactive”.

Consider `CC[C@H](C)[C@H](NC(=O)OC(C)(C)C)c1nc(C(=O)N[C@@H](CCCNC(=N)N)C(=O)O)co1`, for which the result in assay [1] was inactive. Also, the inhibition result in assay [3] is “inactive”.

Usually EC50 stands for the concentration needed to bring the measured effect to its halfway point. For the compound `Cc1oc([C@H](CC(C)C)NC(=O)OC(C)(C)C)nc1C(=O)N[C@@H](CCCNC(=N)N)C(=O)O`, the result in assay [1] and in assay [5] was inactive. In assay [4], the EC50 is 45 nM. Besides, the IC50 in assay [2] was determined as 14 nM. In addition, the inhibition entry in assay [3] is “inactive”.

Take `CC(C)C[C@H](NC(=O)OC(C)(C)C)c1nc(C(=O)N[C@@H](CCCNC(=N)N)C(=O)O)co1`: in assay [1], the outcome was inactive. Besides, in assay [4], the EC50 was found to be 19 nM. Moreover, in assay [2], the IC50 came to 20 nM. In assay [3], the inhibition entry is “inactive”.

Take `CC[C@H](C)[C@H](NC(=O)c1ccc2ccccc2n1)c1nc(C(=O)N[C@@H](CCCNC(=N)N)C(=O)O)co1`: in assay [1], the outcome was inactive. Besides, the EC50 in assay [4] came out at 41 nM. Further, the IC50 in assay [2] amounted to 123 nM. Besides, the inhibition entry in assay [3] was “inactive”.

As for `CC(C)C[C@H](NC(=O)OC(C)(C)C)c1nc(C(=O)N[C@@H](CCCNC(N)=O)C(=O)O)co1`, the inhibition entry in assay [6] and in assay [3] was “inactive” each time.

Take `CC[C@H](C)[C@H](NC(=O)c1cncc(Br)c1)c1nc(C(=O)N[C@@H](CCCNC(=N)N)C(=O)O)co1`: the outcome in assay [1] was inactive. In assay [2], this compound yielded an IC50 of 5 nM. Moreover, the inhibition entry in assay [3] was “inactive”.

For the compound `CC[C@H](C)[C@H](NC(=O)c1cncc(Br)c1)c1nc(C(=O)NCCCCNC(=N)N)c(C)o1`, the inhibition entry in assay [6] and in assay [3] was “inactive” throughout.

Consider `CC(C)C[C@H](NC(=O)Cc1ccc(F)cc1)c1nc(C(=O)N[C@@H](CCCNC(=N)N)C(=O)O)co1`, for which, in assay [1], the outcome was inactive. For the same compound, the half-maximal inhibitory concentration (IC50) in assay [2] is 102 nM. The inhibition result in assay [3] is “inactive”.

Turning to `CC[C@H](C)[C@H](NC(=O)CCC(=O)c1ccc(-c2ccccc2)cc1)c1nc(C(=O)N[C@@H](CCCNC(=N)N)C(=O)O)co1`, the result in assay [1] was inactive. In assay [2], the IC50 is 150 nM. Moreover, the inhibition entry in assay [3] is “inactive”.

`CC(C)C[C@H](NC(=O)C(C)c1ccc(N2Cc3ccccc3C2=O)cc1)c1nc(C(=O)N[C@@H](CCCNC(=N)N)C(=O)O)co1` (stereo not given in full) showed an IC50 in assay [2] of 450 nM. Also, the inhibition entry in assay [3] is “inactive”.

With `CC[C@H](C)[C@H](NC(=O)c1ccc(C(=O)c2ccccc2)cc1)c1nc(C(=O)N[C@@H](CCCNC(=N)N)C(=O)O)co1`, in assay [2], the IC50 came to 157 nM. Also, in assay [3], the inhibition result is “inactive”.

As for `CC[C@H](C)[C@H](NC(=O)c1ccc(N(C)C)cc1)c1nc(C(=O)N[C@@H](CCCNC(=N)N)C(=O)O)co1`, the IC50 in assay [2] worked out at 800 nM. Further, in assay [3], the inhibition result was “inactive”.

`CC[C@H](C)[C@H](NC(=O)C(c1ccccc1)c1ccccc1)c1nc(C(=O)N[C@@H](CCCNC(=N)N)C(=O)O)co1` returned an IC50 in assay [2] of 137 nM. In assay [3], the inhibition result was “inactive”.

Turning to `CC(C)C[C@H](NC(=O)c1c[nH]c2ccccc12)c1nc(C(=O)N[C@@H](CCCNC(=N)N)C(=O)O)co1`, the result in assay [1] and in assay [5] was inactive. Also, in assay [3], the inhibition result was “inactive”.

For the compound `CC[C@H](C)[C@H](NC(=O)C1(C(C)C)C=CCC=C1)c1nc(C(=O)N[C@@H](CCCNC(=N)N)C(=O)O)co1`, in assay [4], the EC50 came to 740 nM. Moreover, in assay [2], the IC50 was 754 nM. Further, the inhibition entry in assay [3] is “inactive”.
